Data as given in patent publication US11203574B2 (BioCryst Pharmaceuticals, Inc., priority 2014, dated 2021).

Biological target: human plasma kallikrein (Homo sapiens (Human), UniProt P03952)
Assay: Plasma kallikrein activity assay (chromogenic substrate S2302)
Assay type: biochemical
Conditions: 2 nM kallikrein, 80 μM S2302, 30° C., pH 7.8; Ki by Cheng-Prusoff equation; values given as ranges; read-out: Ki

Chain of human plasma kallikrein (P03952 whole entry, looked up): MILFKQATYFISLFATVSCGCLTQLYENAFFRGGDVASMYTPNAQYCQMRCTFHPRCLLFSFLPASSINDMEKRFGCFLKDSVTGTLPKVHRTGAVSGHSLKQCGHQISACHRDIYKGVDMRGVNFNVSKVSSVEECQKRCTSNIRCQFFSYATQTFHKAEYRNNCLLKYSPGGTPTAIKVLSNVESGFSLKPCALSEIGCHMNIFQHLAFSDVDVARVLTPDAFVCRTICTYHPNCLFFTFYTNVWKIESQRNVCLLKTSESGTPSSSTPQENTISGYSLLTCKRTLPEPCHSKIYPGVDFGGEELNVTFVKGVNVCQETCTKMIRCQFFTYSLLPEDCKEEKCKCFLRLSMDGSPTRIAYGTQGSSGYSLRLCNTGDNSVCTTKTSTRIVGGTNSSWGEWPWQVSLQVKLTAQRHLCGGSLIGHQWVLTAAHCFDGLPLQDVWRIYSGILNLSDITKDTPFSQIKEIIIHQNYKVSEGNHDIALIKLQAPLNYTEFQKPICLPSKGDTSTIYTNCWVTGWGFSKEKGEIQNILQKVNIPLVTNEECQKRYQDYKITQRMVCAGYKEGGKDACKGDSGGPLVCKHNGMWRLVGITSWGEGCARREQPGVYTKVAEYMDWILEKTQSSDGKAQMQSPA
Chain of human plasma kallikrein (P03952 whole entry partner, looked up): as the sequence (P03952 whole entry, looked up) above

Structure (SMILES)	Ki [nM]
CCCN(c1ccccc1)c1cccc(NC(=O)c2cc(C(F)(F)F)nn2-c2cccc(CN)c2)c1 [27f, 1-(3-(aminomethyl)phenyl)-N-(3-(phenyl(propyl)amino)phenyl)-3-(trifluoromethyl)-1H-pyrazole-5-carboxamide]	50 to 100
NCc1cccc(-n2nc(C(F)(F)F)cc2C(=O)Nc2cccc(C(CCC3CC3)c3cc[nH]c3)c2)c1 (stereo not shown) [103b, 1-(3-(aminomethyl)phenyl)-N-(3-(3-cyclopropyl-1-(1H-pyrrol-3-yl)propyl)phenyl)-3-(trifluoromethyl)-1H-pyrazole-5-carboxamide]	0.1 to 50
NCc1cccc(-n2nc(C(F)(F)F)cc2C(=O)Nc2cc(C(N)(CCC3CC3)c3ccncc3)ccc2F)c1 (single isomer, unassigned; (-)) [217d, (−)-N-(5-(1-amino-3-cyclopropyl-1-(pyridin-4-yl)propyl)-2-fluorophenyl)-1-(3-(aminomethyl)phenyl)-3-(trifluoromethyl)-1H-pyrazole-5-carboxamide]	50 to 100
Cc1cc(C(=O)Nc2cccc(C(NCC3CC3)c3ccccc3)c2)n(-c2cccc(CN)c2)n1 (stereo not shown) [143l, 1-(3-(aminomethyl)phenyl)-N-(3-((cyclopropylmethylamino)(phenyl)methyl)phenyl)-3-methyl-1H-pyrazole-5-carboxamide]	0.1 to 50
NCc1cccc(-n2nc(C(F)(F)F)cc2C(=O)Nc2cc(C(NCC3CC3)c3ccccn3)ccc2F)c1 (stereo not shown) [100e, 1-(3-(aminomethyl)phenyl)-N-(5-((cyclopropylmethylamino)(pyridin-2-yl)methyl)-2-fluorophenyl)-3-(trifluoromethyl)-1H-pyrazole-5-carboxamide]	0.1 to 50
NCc1cccc(-n2nc(C(F)(F)F)cc2C(=O)Nc2cccc(C(NCC3CC3)c3ccc(F)cc3F)c2)c1 (stereo not shown) [196f, 1-(3-(aminomethyl)phenyl)-N-(3-(((cyclopropylmethyl)amino)(2,4-difluorophenyl)methyl)phenyl)-3-(trifluoromethyl)-1H-pyrazole-5-carboxamide]	0.1 to 50
CCOC(c1ccccc1)c1cccc(NC(=O)c2cc(C(F)(F)F)nn2-c2cccc(CN)c2)c1 (stereo not shown) [18g, 1-(3-(aminomethyl)phenyl)-N-(3-(ethoxy(phenyl)methyl)phenyl)-3-(trifluoromethyl)-1H-pyrazole-5-carboxamide]	50 to 100
NCc1cccc(-n2nc(C(F)(F)F)cc2C(=O)Nc2cccc(C(OCC3CC3)c3ccccc3)c2F)c1 (stereo not shown) [36d, 1-(3-(aminomethyl)phenyl)-N-(3-((cyclopropylmethoxy)(phenyl)methyl)-2-fluorophenyl)-3-(trifluoromethyl)-1H-pyrazole-5-carboxamide]	0.1 to 50
NCc1cccc(-n2nc(C(F)(F)F)cc2C(=O)Nc2cccc(C(O)(CCC3CC3)c3ccccc3)c2)c1 (single isomer, unassigned; (-)) [46i, (−)-1-(3-(aminomethyl)phenyl)-N-(3-(3-cyclopropyl-1-hydroxy-1-phenylpropyl)phenyl)-3-(trifluoromethyl)-1H-pyrazole-5-carboxamide]	0.1 to 50
NCc1cccc(-n2nc(C(F)(F)F)cc2C(=O)Nc2cc(C(CCC3CC3)N3CCCCC3=O)ccc2F)c1 (single isomer, unassigned; (+)) [261k, (+)-1-(3-(aminomethyl)phenyl)-N-(5-(3-cyclopropyl-1-(2-oxopiperidin-1-yl)propyl)-2-fluorophenyl)-3-(trifluoromethyl)-1H-pyrazole-5-carboxamide]	0.1 to 50
NCc1cccc(-n2nc(C(F)(F)F)cc2C(=O)Nc2cccc(C(NC3CCC3)c3ccccc3)c2)c1 (stereo not shown) [188b, 1-(3-(Aminomethyl)phenyl)-N-(3-((cyclobutylamino)(phenyl)methyl)phenyl)-3-(trifluoromethyl)-1H-pyrazole-5-carboxamide]	0.1 to 50
NCc1cccc(-n2nc(C(F)(F)F)cc2C(=O)Nc2cc(C(NCC3CC3)c3cccnc3)ccc2F)c1 (stereo not shown) [94b, 1-(3-(aminomethyl)phenyl)-N-(5-((cyclopropylmethylamino)(pyridin-3-yl)methyl)-2-fluorophenyl)-3-(trifluoromethyl)-1H-pyrazole-5-carboxamide]	0.1 to 50
NCc1cccc(-n2nc(C(F)(F)F)cc2C(=O)Nc2cc(F)cc(C(OCC3CC3)c3ccccc3)c2)c1 (stereo not shown) [80h, 1-(3-(aminomethyl)phenyl)-N-(3-((cyclopropylmethoxy)(phenyl)methyl)-5-fluorophenyl)-3-(trifluoromethyl)-1H-pyrazole-5-carboxamide]	0.1 to 50
NCc1cccc(-n2nc(C(F)(F)F)cc2C(=O)Nc2cccc(C(OCC3CC3)c3cccnc3)c2)c1 (single isomer, unassigned; (-)) [44e, (−)-1-(3-(aminomethyl)phenyl)-N-(3-((cyclopropylmethoxy)(pyridin-3-yl)methyl)phenyl)-3-(trifluoromethyl)-1H-pyrazole-5-carboxamide]	0.1 to 50
Cc1cc(C(N)(CCC2CC2)c2ccc(F)c(NC(=O)c3cc(C(F)(F)F)nn3-c3cccc(CN)c3)c2)ccn1 (single isomer, unassigned; (+)) [266j, (+)-N-(5-(1-amino-3-cyclopropyl-1-(2-methylpyridin-4-yl)propyl)-2-fluorophenyl)-1-(3-(aminomethyl)phenyl)-3-(trifluoromethyl)-1H-pyrazole-5-carboxamide]	0.1 to 50
N#Cc1cc(C(=O)Nc2cc(C(NCC3CC3)c3ccccc3)ccc2F)n(-c2cccc(CN)c2)n1 (single isomer, unassigned; (-)) [240b, (−)-1-(3-(aminomethyl)phenyl)-3-cyano-N-(5-((cyclopropylmethylamino)(phenyl)methyl)-2-fluorophenyl)-1H-pyrazole-5-carboxamide]	0.1 to 50
N=C(N)c1cccc(-n2nc(C(F)(F)F)cc2C(=O)Nc2cc(C(NCC3CC3)c3ccccc3)ccc2F)c1 (single isomer, unassigned; (-)) [227d, (−)-1-(3-carbamimidoylphenyl)-N-(5-((cyclopropylmethylamino)(phenyl)methyl)-2-fluorophenyl)-3-(trifluoromethyl)-1H-pyrazole-5-carboxamide]	0.1 to 50
NCc1cccc(-n2nc(C(F)(F)F)cc2C(=O)Nc2cccc(C(O)(CCC3CC3)c3cccnc3)c2)c1 (racemic) [47f, 1-(3-(aminomethyl)phenyl)-N-(3-(3-cyclopropyl-1-hydroxy-1-(pyridin-3-yl)propyl)phenyl)-3-(trifluoromethyl)-1H-pyrazole-5-carboxamide]	0.1 to 50
NCc1cccc(-n2nc(C(F)(F)F)cc2C(=O)Nc2cccc(C(NCC3CC3)c3cccc(C(F)(F)F)c3)c2)c1 (stereo not shown) [111f, 1-(3-(Aminomethyl)phenyl)-N-(3-((cyclopropylmethylamino)(3-(trifluoromethyl)phenyl)methyl)phenyl)-3-(trifluoromethyl)-1H-pyrazole-5-carboxamide]	0.1 to 50
COc1ccc2cc(C(NCC3CC3)c3cccc(NC(=O)c4cc(C(F)(F)F)nn4-c4cccc(CN)c4)c3)ccc2c1 (stereo not shown) [134f, 1-(3-(aminomethyl)phenyl)-N-(3-((cyclopropylmethylamino)(6-methoxynaphthalen-2-yl)methyl)phenyl)-3-(trifluoromethyl)-1H-pyrazole-5-carboxamide]	0.1 to 50
NCc1cccc(-n2nc(C(F)(F)F)cc2C(=O)Nc2cccc(C(NCC3CC3)c3cccnc3)c2)c1 (stereo not shown) [79f, 1-(3-(Aminomethyl)phenyl)-N-(3-(((cyclopropylmethyl)amino)(pyridin-3-yl)methyl)phenyl)-3-(trifluoromethyl)-1H-pyrazole-5-carboxamide]	0.1 to 50
NCc1cccc(-n2nc(C(F)(F)F)cc2C(=O)Nc2cccc(C(NCC3CC3)c3ccc(S(N)(=O)=O)cc3)c2)c1 (stereo not shown) [112g, 1-(3-(aminomethyl)phenyl)-N-(3-((cyclopropylmethylamino)(4-sulfamoylphenyl)methyl)phenyl)-3-(trifluoromethyl)-1H-pyrazole-5-carboxamide]	0.1 to 50
Nc1nccc2ccc(-n3nc(C(F)(F)F)cc3C(=O)Nc3cc(C(N)(CCC4CC4)c4ccccc4)ccc3F)cc12 (single isomer, unassigned; (+)) [255a, (+)-N-(5-(1-amino-3-cyclopropyl-1-phenylpropyl)-2-fluorophenyl)-1-(1-aminoisoquinolin-7-yl)-3-(trifluoromethyl)-1H-pyrazole-5-carboxamide]	0.1 to 50
Nc1nccc2ccc(-n3nc(C(F)(F)F)cc3C(=O)Nc3cc(C(CCC4CC4)n4ccncc4=O)ccc3F)cc12 (stereo not shown) [259d, 1-(1-aminoisoquinolin-7-yl)-N-(5-(3-cyclopropyl-1-(2-oxopyrazin-1(2H)-yl)propyl)-2-fluorophenyl)-3-(trifluoromethyl)-1H-pyrazole-5-carboxamide]	0.1 to 50
NCc1cccc(-n2nc(C(F)(F)F)cc2C(=O)Nc2cccc(C(NCC3CC3)c3ccc(O)cc3)c2)c1 (stereo not shown) [135c, 1-(3-(aminomethyl)phenyl)-N-(3-(((cyclopropylmethyl)amino)(4-hydroxyphenyl)methyl)phenyl)-3-(trifluoromethyl)-1H-pyrazole-5-carboxamide]	0.1 to 50
N#Cc1ccc(C(N)(CCC2CC2)c2ccc(F)c(NC(=O)c3cc(C(N)=O)nn3-c3cccc(CN)c3)c2)cc1 (single isomer, unassigned; (+)) [231d, (+)-N^5-(5-(1-amino-1-(4-cyanophenyl)-3-cyclopropylpropyl)-2-fluorophenyl)-1-(3-(aminomethyl)phenyl)-1H-pyrazole-3,5-dicarboxamide]	0.1 to 50
CC(=O)Nc1ccc(C(NCC2CC2)c2cccc(NC(=O)c3cc(C(F)(F)F)nn3-c3cccc(CN)c3)c2)cc1 (stereo not shown) [138f, N-(3-((4-acetamidophenyl)(cyclopropylmethylamino)methyl)phenyl)-1-(3-(aminomethyl)phenyl)-3-(trifluoromethyl)-1H-pyrazole-5-carboxamide]	0.1 to 50
CS(=O)(=O)c1ccc(C(NCC2CC2)c2cccc(NC(=O)c3cc(C(F)(F)F)nn3-c3cccc(CN)c3)c2)cc1 (stereo not shown) [113f, 1-(3-(aminomethyl)phenyl)-N-(3-((cyclopropylmethylamino)(4-(methylsulfonyl)phenyl)methyl)phenyl)-3-(trifluoromethyl)-1H-pyrazole-5-carboxamide]	0.1 to 50
